Experimental data taken from ChEMBL document CHEMBL1131561, “Peptidomimetic aminomethylene ketone inhibitors of interleukin-1 beta-converting enzyme (ICE)” (Bioorg Med Chem Lett, 1998).

Biological target: T1, Caspase-1 (Homo sapiens, UniProt P29466)
T1 sequence (P29466 whole entry): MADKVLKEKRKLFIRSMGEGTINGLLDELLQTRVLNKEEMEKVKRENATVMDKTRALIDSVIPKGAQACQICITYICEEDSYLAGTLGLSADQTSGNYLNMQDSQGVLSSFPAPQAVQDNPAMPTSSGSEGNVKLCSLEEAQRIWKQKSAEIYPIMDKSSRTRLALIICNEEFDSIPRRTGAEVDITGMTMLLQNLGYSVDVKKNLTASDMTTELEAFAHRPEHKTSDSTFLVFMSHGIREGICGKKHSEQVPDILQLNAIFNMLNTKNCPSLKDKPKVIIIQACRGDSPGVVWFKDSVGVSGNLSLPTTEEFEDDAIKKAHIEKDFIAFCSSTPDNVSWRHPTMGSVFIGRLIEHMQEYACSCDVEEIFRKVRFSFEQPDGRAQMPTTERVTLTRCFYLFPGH
Test: Inhibition of human recombinant IL-1 beta converting enzyme

CCC(C(=O)N[C@@H](CC(=O)O)C(=O)CNCCc1ccccc1)n1cccc(NC(=O)c2ccc3ccccc3c2)c1=O (stereo not given in full)
Ki: 0.37 nM

CCC(C(=O)NC(CC(=O)O)C(=O)CN1CCN(C)CC1)n1cccc(NC(=O)c2ccc3ccccc3c2)c1=O (stereo not given)
Ki: 62.5 nM

CCC(C(=O)N[C@@H](CC(=O)O)C(=O)CN(C)Cc1ccccc1)n1cccc(NC(=O)c2ccc3ccccc3c2)c1=O (stereo not given in full)
Ki: 58 nM

CCC(C(=O)NC(CC(=O)O)C(=O)CN1CCSCC1)n1cccc(NC(=O)c2ccc3ccccc3c2)c1=O (stereo not given)
Ki: 11.2 nM

CCC(C(=O)NC(CC(=O)O)C(=O)Cn1ccc(=O)cc1)n1cccc(NC(=O)c2ccc3ccccc3c2)c1=O (stereo not given)
Ki: 395 nM

CCOC(=O)C1CCN(CC(=O)C(CC(=O)O)NC(=O)C(CC)n2cccc(NC(=O)c3ccc4ccccc4c3)c2=O)CC1 (stereo not given)
Ki: 8 nM

CCC(C(=O)NC(CC(=O)O)C(=O)CN1CCOCC1)n1cccc(NC(=O)c2ccc3ccccc3c2)c1=O (stereo not given)
Ki: 45 nM

CCCC(=O)NCC(=O)C(CC(=O)O)NC(=O)C(CC)n1cccc(NC(=O)c2ccc3ccccc3c2)c1=O (stereo not given)
Ki: 81 nM

CCC(C(=O)N[C@@H](CC(=O)O)C(=O)CN[C@@H](Cc1ccccc1)C(N)=O)n1cccc(NC(=O)c2ccc3ccccc3c2)c1=O (stereo not given in full)
Ki: 78 nM

CCC(C(=O)NC(CC(=O)O)C(=O)CN1CCNCC1)n1cccc(NC(=O)c2ccc3ccccc3c2)c1=O (stereo not given)
Ki: 410 nM

CCCCN(C)CC(=O)[C@H](CC(=O)O)NC(=O)C(CC)n1cccc(NC(=O)c2ccc3ccccc3c2)c1=O (stereo not given in full)
Ki: 3.1 nM

CCC(C(=O)NC(CC(=O)O)C(=O)CNC(C)=O)n1cccc(NC(=O)c2ccc3ccccc3c2)c1=O (stereo not given)
Ki: 117 nM

CCC(C(=O)N[C@@H](CC(=O)O)C(=O)CN(C)CCCC(N)=O)n1cccc(NC(=O)c2ccc3ccccc3c2)c1=O (stereo not given in full)
Ki: 37 nM

CCCCN(CC)CC(=O)[C@H](CC(=O)O)NC(=O)C(CC)n1cccc(NC(=O)c2ccc3ccccc3c2)c1=O (stereo not given in full)
Ki: 2.3 nM

CCCCCCN(C)CC(=O)[C@H](CC(=O)O)NC(=O)C(CC)n1cccc(NC(=O)c2ccc3ccccc3c2)c1=O (stereo not given in full)
Ki: 1.79 nM

CCC(C(=O)NC(CC(=O)O)C(=O)CN1CCCCC1)n1cccc(NC(=O)c2ccc3ccccc3c2)c1=O (stereo not given)
Ki: 4 nM

CCC(C(=O)NC(CC(=O)O)C(=O)CNC(=O)c1ccccc1)n1cccc(NC(=O)c2ccc3ccccc3c2)c1=O (stereo not given)
Ki: 57.5 nM

CCCCNCC(=O)[C@H](CC(=O)O)NC(=O)C(CC)n1cccc(NC(=O)c2ccc3ccccc3c2)c1=O (stereo not given in full)
Ki: 0.76 nM

CCCCCC(=O)NCC(=O)C(CC(=O)O)NC(=O)C(CC)n1cccc(NC(=O)c2ccc3ccccc3c2)c1=O (stereo not given)
Ki: 34.3 nM

CCCCCCNCC(=O)[C@H](CC(=O)O)NC(=O)C(CC)n1cccc(NC(=O)c2ccc3ccccc3c2)c1=O (stereo not given in full)
Ki: 0.85 nM

CCC(C(=O)N[C@@H](CC(=O)O)C(=O)CN(C)[C@@H](Cc1ccccc1)C(N)=O)n1cccc(NC(=O)c2ccc3ccccc3c2)c1=O (stereo not given in full)
Ki: 255 nM

CCC(C(=O)N[C@@H](CC(=O)O)C(=O)CN(C)CCc1ccccc1)n1cccc(NC(=O)c2ccc3ccccc3c2)c1=O (stereo not given in full)
Ki: 4.8 nM

CCC(C(=O)N[C@@H](CC(=O)O)C(=O)CN[C@H](Cc1ccccc1)C(N)=O)n1cccc(NC(=O)c2ccc3ccccc3c2)c1=O (stereo not given in full)
Ki: 25 nM

CCCCCCN(CCCCCC)CC(=O)[C@H](CC(=O)O)NC(=O)C(CC)n1cccc(NC(=O)c2ccc3ccccc3c2)c1=O (stereo not given in full)
Ki: 2.39 nM

CCC(C(=O)N[C@@H](CC(=O)O)C(=O)CNCCCc1ccccc1)n1cccc(NC(=O)c2ccc3ccccc3c2)c1=O (stereo not given in full)
Ki: 1.15 nM

CCC(C(=O)NC(CC(=O)O)C(=O)CN1CCC(C(N)=O)CC1)n1cccc(NC(=O)c2ccc3ccccc3c2)c1=O (stereo not given)
Ki: 11.6 nM

CCC(C(=O)N[C@@H](CC(=O)O)C(=O)CNCc1ccccc1)n1cccc(NC(=O)c2ccc3ccccc3c2)c1=O (stereo not given in full)
Ki: 3.05 nM

CCC(C(=O)NC(CC(=O)O)C(=O)CN1CCCC1)n1cccc(NC(=O)c2ccc3ccccc3c2)c1=O (stereo not given)
Ki: 7.3 nM

CCC(C(=O)NC(CC(=O)O)C(=O)Cn1ccccc1=O)n1cccc(NC(=O)c2ccc3ccccc3c2)c1=O (stereo not given)
Ki: 1650 nM

CCC(C(=O)N[C@@H](CC(=O)O)C(=O)CN(C)C)n1cccc(NC(=O)c2ccc3ccccc3c2)c1=O (stereo not given in full)
Ki: 22.8 nM
